Results as given in paper PMC11811597, “Phenomics‐Based Discovery of Novel Orthosteric Choline Kinase Inhibitors” (Angewandte Chemie (International Ed. in English), 2025).

Target: T1, EHMT2 (G9a) (Homo sapiens, UniProt Q96KQ7)
T1 sequence (Q96KQ7 1-1210): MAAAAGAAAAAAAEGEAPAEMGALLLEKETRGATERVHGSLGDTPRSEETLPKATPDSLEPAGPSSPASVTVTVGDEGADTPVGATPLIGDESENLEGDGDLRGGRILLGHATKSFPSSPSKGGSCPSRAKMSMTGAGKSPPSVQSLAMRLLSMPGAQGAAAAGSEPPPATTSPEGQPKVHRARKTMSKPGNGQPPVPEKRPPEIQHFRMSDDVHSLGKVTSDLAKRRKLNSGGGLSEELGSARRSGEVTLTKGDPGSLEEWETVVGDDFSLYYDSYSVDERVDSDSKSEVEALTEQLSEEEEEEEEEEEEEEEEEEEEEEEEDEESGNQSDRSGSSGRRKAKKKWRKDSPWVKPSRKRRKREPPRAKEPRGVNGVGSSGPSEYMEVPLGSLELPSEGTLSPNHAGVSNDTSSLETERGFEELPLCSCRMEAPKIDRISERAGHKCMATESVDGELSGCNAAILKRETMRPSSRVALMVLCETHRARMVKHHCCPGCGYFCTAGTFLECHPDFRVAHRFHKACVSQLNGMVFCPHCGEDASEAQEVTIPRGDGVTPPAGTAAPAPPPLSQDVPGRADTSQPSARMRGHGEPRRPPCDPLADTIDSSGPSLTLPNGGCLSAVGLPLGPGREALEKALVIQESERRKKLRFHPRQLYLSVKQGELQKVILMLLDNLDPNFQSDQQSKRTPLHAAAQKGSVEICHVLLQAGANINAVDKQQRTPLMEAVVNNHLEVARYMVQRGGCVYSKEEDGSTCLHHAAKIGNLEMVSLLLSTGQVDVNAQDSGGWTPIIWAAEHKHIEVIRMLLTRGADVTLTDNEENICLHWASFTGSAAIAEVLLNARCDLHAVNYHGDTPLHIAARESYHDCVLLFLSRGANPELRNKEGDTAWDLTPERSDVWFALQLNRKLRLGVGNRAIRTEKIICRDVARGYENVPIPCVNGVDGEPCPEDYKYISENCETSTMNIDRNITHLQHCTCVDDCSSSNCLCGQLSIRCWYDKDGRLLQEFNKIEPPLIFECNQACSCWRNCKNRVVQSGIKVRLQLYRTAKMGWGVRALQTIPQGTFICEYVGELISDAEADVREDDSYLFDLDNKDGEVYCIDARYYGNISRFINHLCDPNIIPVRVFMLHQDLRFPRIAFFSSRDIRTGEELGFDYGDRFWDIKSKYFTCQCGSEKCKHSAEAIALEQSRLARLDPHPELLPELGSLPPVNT
Assay: Competitive affinity-based chemoproteomics (UNC0965 matrix), PBMC cell extract
Assay type: binding
Design: endogenous in cells
Conditions: 20 µM competitor
Experimental: described.[2] Lysates were precleared with bead slurry (100 μL) for 30 min at 4 °C and then treated with UNC0638 or UNC0737 (20 μM) or DMSO control for 30 min at 4 °C followed by incubation with affinity matrix for 2 h at 4 °C. Affinity matrices were washed with buffer A (5 mL) and proteins eluted with 100 μL of 2x Laemmli sample buffer, 100 mM DTT, in PBS and heating for 10 min at 90 °C.
Eluents (70 µL) were diluted in 0.1 M Tris (pH 7.8) to 200 µL, reduced with 5 mM DTT for 30 min at RT, and alkylated with 20 mM iodoacetamide for 30 min at RT in the dark. Proteins were precipitated by sequential addition of MeOH (600 µL), CHCl3 (150 µL) and H2O (450 µL), pelleted (17,000 × g, 5 min), washed with further MeOH (2 × 600 µL), and re-pelleted. Air dried pellets were resuspended in 50 μL 6 M urea (pH 7.8) by vortexing and then diluted with 250 μL H2O before adding 1 µg trypsin for overnight incubation at 37 °C. The digests were acidified with FA (1% v/v final concentration), desalted using SOLA HRP SPE Cartridges (Thermo Fisher), eluted with 69% v/v MeCN, 0.1% v/v FA in H2O (600 μL) and dried in vacuo. Dried peptides were stored at -20 °C before resuspension in 2% v/v MeCN, 0.1% v/v FA in H2O (20 μL) for LC-MS/MS analysis.
LC-MS/MS Data Acquisition
Digested samples were analysed by nano-UPLC–MS/MS using a Dionex Ultimate 3000 nano UPLC fitted with an EASY spray column (75 μm × 500 mm, 2 μm particle size, Thermo Scientific), coupled to an Orbitrap Q Exactive instrument. […]
Raw data was processed using MaxQuant[3] version 2.0.1.0 and the reference complete human proteome FASTA file (UniProt, downloaded 05.08.21). Label Free Quantification (LFQ) and Match Between Runs were selected; Cysteine carbamidomethylation was selected as a fixed modification, and methionine oxidation and asparagine deamidation as variable modifications. Default settings for identification and quantification were used. […]
mode selected for both identification and quantification of proteins (razor peptides are uniquely assigned to protein groups and not to individual proteins).

COc1cc2c(NC3CCN(C(C)C)CC3)nc(C3CCCCC3)nc2cc1OCCCN1CCCC1 [UNC0638]
EHMT2 (G9a) binding to the matrix: reduced binding to the matrix
